Holding throughout (format): functional
In assay [1] the test system is Spodoptera littoralis. The experiment in a line: Antifeedant activity against final stage larvae of Spodoptera littoralis at 100 mg/l after 8 to 24 hr.
The test system of assay [2] is Spodoptera littoralis. In words: Antifeedant activity against final stage larvae of Spodoptera littoralis at 0.1 mg/l after 8 to 24 hr.
The subject of assay [3] is Spodoptera littoralis. The experiment in a line: Antifeedant activity against final stage larvae of Spodoptera littoralis at 10 mg/l after 8 to 24 hr.
Assay [4] concerns Spodoptera littoralis. In words: Antifeedant activity against final stage larvae of Spodoptera littoralis at 1 mg/l after 8 to 24 hr.

Each structure is given as a SMILES string.

As for `CO[C@@H]1C[C@@H]2C[C@@H]([C@@]3(C)[C@H](C)C[C@H](OC(C)=O)[C@]4(COC(C)=O)[C@@H]3C[C@@H](O)[C@H](OC(=O)C(C)C)[C@]43CO3)O[C@@H]2O1` [HATIVENE B], the AFI in assay [1] was 100%; in assay [2], 41.2%; in assay [3], 100%; in assay [4], 69%.

With `CO[C@H]1C[C@@H]2C[C@@H]([C@@]3(C)[C@H](C)C[C@H](OC(C)=O)[C@]4(COC(C)=O)[C@@H]3C[C@@H](O)[C@H](OC(=O)C(C)C)[C@]43CO3)O[C@@H]2O1` [HATIVENE A], the AFI in assay [1] was 100%; in assay [2] it was 37.3%; in assay [3], 100%; in assay [4], 63.3%.

Regarding `CC[C@H](C)C(=O)O[C@H]1[C@H](O)C[C@@H]2[C@@](C)([C@@H]3C[C@H]4CCO[C@H]4O3)[C@H](C)C[C@H](OC(C)=O)[C@@]2(COC(C)=O)[C@@]12CO2` [14,15-DIHYDROAJUGAPITIN], the AFI was 100% in assay [1], 65.9% in assay [2], 100% in assay [3] and 92.6% in assay [4].

For `CO[C@@H]1C[C@@H]2C[C@@H]([C@@]3(C)[C@H](C)C[C@H](OC(C)=O)[C@]4(COC(C)=O)[C@@H]3C[C@H](O)[C@H](OC(=O)C(C)C)[C@]43CO3)O[C@@H]2O1` [HATIVENE C], the AFI was determined as 100% in assay [1], 42.7% in assay [2], 100% in assay [3] and 63.3% in assay [4].

As to `CC[C@@H](C)C(=O)O[C@H]1[C@H](O)C[C@@H]2[C@@](C)([C@@H]3C[C@H]4C[C@@H](OC)O[C@H]4O3)[C@H](C)C[C@H](OC(C)=O)[C@@]2(COC(C)=O)[C@@]12CO2` [LUPULIN A], the AFI in assay [1] turned out to be 100%; in assay [2], 45%; in assay [3], 100%; in assay [4] it was 74.5%.

For the origin of these results see ChEMBL document CHEMBL3045017, “Responses of Spodoptera littoralis larvae to Tunisian plant extracts and to neo-clerodane diterpenoids isolated from Ajuga pseudoiva leaves” (2000).
